# Laboratory results from PubChem BioAssay AID857 (Vanderbilt High Throughput Screening Facility, 2007).
# Active and inactive are the calls of the source.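 The calls were made as follows: active = a full or partial dose-response curve in at least two of three replicate runs; inactive = the rest.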
# Biological target: D(1B) dopamine receptor (Homo sapiens) (UniProt P21918)
# Assay: D5 receptor allosteric modulators, concentration-response – cell-based, HEK293, CRE-luciferase, luminescence, EC30 dopamine, selectivity assay for D1 allosteric modulator project, dose response (AID 857);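 also: HEK 293 cells expressing human D5 with a CRE-driven luciferase reporter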
# Sequence of D(1B) dopamine receptor (Homo sapiens) (P21918 whole entry, looked up): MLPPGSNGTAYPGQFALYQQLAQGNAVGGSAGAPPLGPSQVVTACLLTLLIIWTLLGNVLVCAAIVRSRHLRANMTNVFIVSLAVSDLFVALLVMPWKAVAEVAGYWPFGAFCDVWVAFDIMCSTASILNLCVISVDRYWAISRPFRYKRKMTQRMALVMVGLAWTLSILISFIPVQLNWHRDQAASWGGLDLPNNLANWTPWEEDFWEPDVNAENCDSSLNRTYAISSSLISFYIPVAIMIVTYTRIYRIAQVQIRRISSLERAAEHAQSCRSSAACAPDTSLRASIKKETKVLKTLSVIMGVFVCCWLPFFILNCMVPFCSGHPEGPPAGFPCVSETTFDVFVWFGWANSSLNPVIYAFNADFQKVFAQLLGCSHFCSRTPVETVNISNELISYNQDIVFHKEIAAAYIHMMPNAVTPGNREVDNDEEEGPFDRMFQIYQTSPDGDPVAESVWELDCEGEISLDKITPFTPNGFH
row,SMILES,outcome
1,CCc1nc(N)c(C#N)c(-c2ccncc2)c1C,inactive
2,O=C(NCc1cccs1)C1CC(c2ccccc2O)=NO1 (stereo not drawn),inactive
3,CCCc1cc(C(=O)Nc2sc(C(C)=O)c(C)c2C(=O)OCC)no1,inactive
4,COC(=O)c1cc(NC(=O)CSc2nc(C)cc(=O)[nH]2)cc(C(=O)OC)c1,inactive
5,COc1ccc(-c2coc3cc(O)ccc3c2=O)cc1OC,inactive
6,CCOC(=O)C1CCCN(C(=O)c2cc(Cl)ccc2Cl)C1 (stereo not drawn),inactive
7,CNc1nc(C)c(C(=O)OCC(=O)OC)s1,inactive
8,Cc1cc(C)c(C#N)c(SCc2ccc(C#N)cc2)n1,inactive

# Continued, values first:
row,outcome,SMILES
1,inactive,COc1ncnc2c1N[C@@](C)(O)c1c(F)c(F)c(F)c(F)c1S2
2,inactive,Cc1cc(=O)c2n(Cc3ccc(Cl)cc3)nc[n+]2[nH]1
3,inactive,Cc1cc(-c2cccs2)c2c(n1)sc1c(=O)[nH]c(=O)[nH]c12
4,inactive,C=CCSc1nnc2n(-c3ccccc3OC)c(=O)c3c4c(sc3n12)CCC4
5,inactive,COc1ccc(OC)c(N2C(=O)C(Cl)=C(N3CCCCC3)C2=O)c1
6,inactive,Cc1csc2c(C#N)c(=O)c3c(n12)CCC3
7,inactive,CCCNc1nc2c(c(=O)[nH]c(=O)n2C)n1CCc1ccccc1
8,inactive,Nc1ncnc2c1ncn2CCOc1ccccc1
9,inactive,COc1ccc(OC)c(NC(=O)CSc2nc3ccccc3c(=O)n2CCNC(C)=O)c1
10,inactive,C(=N\C(/N=C/c1ccco1)c1ccco1)/c1ccco1
